Reference: US20160044927A1, “Disinfectant Formulation Comprising Calcium Hydroxide and Sodium Hypochlorite” (priority 2012, published 2016)
Where two headings read alike, the source gives them in different places.

Key:
[1] = system: HSV-1; conditions: for Log TCID50/100 ul: preliminary
Method: Experiments: 10 μL of virus stock was mixed with 100% saturated Ca(OH)2 (Final Ca(OH)2 concentration 99%) and incubated for different lengths of time. Then the mixture was diluted and the viable number of virus (Log TCID) was measured.
99% saturated Ca(OH)2 was used to treat 2 viruses using different incubation times (5 min to 1 hr).

[2] = system: Aspergillus niger(#9642); conditions: 24 hr, very spotty growth, not yet a confluence lawn, other replicates patchy lawn

Structure (SMILES)	log kill ([1]; HSV-1, in 1 hr) [log]	Log TCID50/100 ul ([1]; HSV-1, incubation 0 min) [Log TCID50/100 ul]	Log TCID50/100 ul ([1]; HSV-1, incubation 5 min) [Log TCID50/100 ul]	Log TCID50/100 ul ([1]; HSV-1, incubation 10 min) [Log TCID50/100 ul]	Log TCID50/100 ul ([1]; HSV-1, incubation 15 min) [Log TCID50/100 ul]	Log TCID50/100 ul ([1]; HSV-1, incubation 30 min) [Log TCID50/100 ul]	Log TCID50/100 ul ([1]; HSV-1, incubation 60 min) [Log TCID50/100 ul]	Zone of Inhibition ([2]; paste volume 0.2 ml)	Zone of Inhibition ([2]; paste volume 0.3 ml)
[Ca+2].[OH-].[OH-] [99% saturated Ca(OH)2, calcium hydroxide]	> 3.5	6.5	6	5.5	3.5	3	<3		
[Ca+2].[OH-].[OH-] [Ca(OH)2 paste, calcium hydroxide]								—, ~35≠, — mm	—, ~34≠, — mm
